The subject of one assay is KNRK cells. The experiment in a line: ATP-stimulated IP1 accumulation in KNRK cells. The format is cell-based. As to conditions: ATP (10 μM). The method, then:
KNRK-hPAR2, KNRK or HT-29 cells were seeded at a density of 50×10^3 cells/well in a clear poly-d-lysine coated 96 well tissue culture plate. Following 24 h incubation at 37° C. and 5% CO2, media was removed and replaced with 80 μl IP1 stimulation buffer (10 mM HEPES, 1 mM CaCl2, 0.5 mM MgCl2, 4.2 mM KCl, 146 mM NaCl, 5.5 mM glucose, 50 mM LiCl). Following stimulation buffer addition, the wells received 10 μl of 10× antagonists or DMSO vehicle. All plates were further incubated at 37° C., 5% CO2 for 30 min. 10 μl of 2F or ATP was added to the plates and further incubated for 40 min. Following incubation, stimulation buffer was quickly removed by aspiration and replaced with 25 μl lysis buffer (IP-One HTRF® assay kit, Cisbio). Following incubation of the lysates at 37° C., 5% CO2 for 10′, 10 μl lysate was transferred to a 384-well OptiPlate (PerkinElmer) and detected using the IP-One HTRF® assay kit (Cisbio).
Compounds of the invention (added at 10×concentrations in a 10 μL volume) were incubated for 30 min prior to the addition of 10 μM ATP or 100 nM or 300 nM PAR2 agonist (2F; EC80, added at 10×concentrations in a 10 μL volume) and then further incubated for 40 min. After lysis, the inositol phosphate 1 was quantified with IP-One HTRF® assay kit, Cisbio. The data was analysed with Prism, GraphPad to calculate the IC50 values, shown below in Table 1. […]

The subject of a further assay is DRG neurons. The experiment in a line: Ca2+ assays in DRG neurons. The format is cell-based, mouse. As to conditions: trypsin 100 nM. The source says: Proteases may induce pain by activating PAR2 on nociceptors or other cell types. To determine the contribution of PAR2 on nociceptors, mice were bred expressing PAR2 flanked by LoxP sites (Par2^lox/lox) with mice expressing Cre recombinase targeted to nociceptors using the NaV1.8 promoter (Scn10a) (Stirling L. C. et al., Pain 2005, 113(1-2): 27-36). Par2-NaV1.8 mice lacked immunoreactive PAR2 in NaV1.8-positive nociceptors (FIG. 1A). Whereas 31% (20 of 65) of small-diameter (<25 μm) DRG neurons from WT mice responded to trypsin (100 nM) with increased [Ca^2+]i, only 6% (3 of 51) of neurons from Par2-NaV1.8 mice responded (FIGS. 1B, 11A, and 11B). Nociception was assessed by measuring withdrawal responses to stimulation of the plantar surface of the hindpaw with von Frey filaments. […] In Par2-NaV1.8 mice, the initial responses were maintained, but responses after 120 min were diminished. […] Trypsin-induced inflammation was markedly diminished in Par2-NaV1.8 mice.
[Ca^2+]i was measured in DRG neurons from WT and Par2-NaV1.8 mice, as described (Tsvetanova, N. G., et al., Nat. Chem. Biol. 2014, 10(12): 1061-1065). […] Fluorescence of individual neurons was measured at 340 nm and 380 nm excitation and 530 nm using a Nikon Eclipse Ti microscope with 20× magnification and a Photometrics CoolSNAP camera. Data were analyzed using Nikon Ti Element Software. […]

With `Cc1nc(C(=O)N2CCN(C(=O)c3cn4nc(-c5ccc(F)cc5)cc(C(C)(C)C)c4n3)C(C)(C)C2)n[nH]1` [Compound I-343, (8-(tert-butyl)-6-(4-fluorophenyl)imidazo[1,2-b]pyridazin-2-yl)(2,2-dimethyl-4-(5-methyl-1H-1,2,4-triazole-3-carbonyl)piperazin-1-yl)methanone], the “ATP-stimulated IP1” value with KNRK cells is listed as “did not affect”.

In the case of trypsin, the “small-diameter DRG neurons responding with increased [Ca2+]i, Par2-NaV1.8 mice” value in the assay on DRG neurons (3 of 51 neurons) came to 6%. In addition, the “small-diameter DRG neurons responding with increased [Ca2+]i, WT mice” value in the assay on DRG neurons (20 of 65 neurons) is 31%.

(Values after patent publication US20200383985A1, “Inhibitors of Protease Activated Receptor-2” (Endosome Therapeutics, Inc., priority 2017, published 2020).)
